Laboratory results: ChEMBL document CHEMBL4330157, “Lycopodium Alkaloids: Lycoplatyrine A, an Unusual Lycodine-Piperidine Adduct from Lycopodium platyrhizoma and the Absolute Configurations of Lycoplanine D and Lycogladine H” (J Nat Prod, 2019)

Molecular target: Acetylcholinesterase (Homo sapiens, UniProt P22303)
Assay: Inhibition of AChE (unknown origin) using acetylthiocholine as substrate preincubated for 15 mins followed by substrate addition measured every minute for 15 mins by Ellman's method

Chain of Acetylcholinesterase (P22303 whole entry): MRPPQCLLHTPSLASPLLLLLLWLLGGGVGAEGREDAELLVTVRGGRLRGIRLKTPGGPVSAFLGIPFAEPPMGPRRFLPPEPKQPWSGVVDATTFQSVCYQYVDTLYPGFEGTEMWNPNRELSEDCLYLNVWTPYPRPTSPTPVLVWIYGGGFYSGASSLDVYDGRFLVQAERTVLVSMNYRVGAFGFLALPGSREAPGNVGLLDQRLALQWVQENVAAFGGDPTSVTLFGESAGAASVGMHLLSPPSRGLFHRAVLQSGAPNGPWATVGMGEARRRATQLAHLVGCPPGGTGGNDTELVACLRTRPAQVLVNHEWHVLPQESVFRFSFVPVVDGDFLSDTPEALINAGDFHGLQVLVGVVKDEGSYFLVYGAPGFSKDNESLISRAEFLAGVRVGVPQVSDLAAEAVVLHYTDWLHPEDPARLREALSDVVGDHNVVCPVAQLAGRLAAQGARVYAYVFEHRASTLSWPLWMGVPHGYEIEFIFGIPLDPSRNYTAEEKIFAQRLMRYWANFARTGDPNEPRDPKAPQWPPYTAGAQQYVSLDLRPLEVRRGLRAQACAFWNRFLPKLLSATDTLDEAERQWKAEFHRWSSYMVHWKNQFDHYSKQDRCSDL

Row | SMILES | IC50
1 | CC1C[C@H]2[C@H](O)[C@@H]3O[C@]4(C1)OC1CCN5CCCC24[C@]13C5 (stereo partly drawn) | > 30 µM
2 | C[C@@H]1C[C@H]2Cc3ncc(C4CCCCN4)cc3[C@]3(C1)NCCC[C@H]23 (stereo partly drawn) | > 30 µM
3 | C=C[C@@H]1[C@@H]2CC3=C(CCC(=O)N3)[C@@]1(N)C[C@H](C)C2 | > 30 µM
